In brackets after ≈: the same amount, converted by molar mass.
Test: solubility of suspension in buffer
Assay type: physicochemical
Conditions: aqueous buffer; in the buffer at 37° C. when implanted

## CC1(C)O[C@@H]2C[C@H]3[C@@H]4CCC5=CC(=O)C=C[C@]5(C)[C@@]4(F)[C@@H](O)C[C@]3(C)[C@]2(C(=O)CO)O1 [triamcinolone acetonide]
  solubility: ~19 µg/mL (≈ 43.7 µM)
